Patent US20080176810A1, “Use of 3, 4', 5-Trihydroxy-Stilbene-3-Beta-D-glucoside in Prepartion of Medicines For Treating and/or Preventing Ischemic Heart Disease” (SHENZHEN NEPTUNUS PHARMACEUTICAL CO., LTD., priority 2004, published 2008)
Read-outs that look alike come from different tables or passages of the source.

What was measured:
Kunming mice = assay: Acute toxicity test of mice, intravenous injection; conditions: single dose tail intravenous injection
Description: Drugs were medicated via intravenous injection at different concentration in same volume, which was 20 ml/kg.
40 healthy Kunming mice were selected and randomly divided into 4 groups. Drugs were injected via tail vein at one time and the doses were 300 mg/kg, 425 mg/kg, 600 mg/kg and 850 mg/kg, respectively. Mice were constantly observed for 4 hours after the injection. After that, observations were carried out once in the morning and once in the afternoon for 7 days continuously. Signs of intoxation and time of death were recorded.

[1] = system: isolated carotid and pulmonary arteries; conditions: cited from earlier work
[2] = system: myocardial infarction induced by ligation of coronary artery; assay: Canine model of myocardial infarction induced by ligation of coronary artery, iv; type: in vivo, dogs; conditions: for sum of ST (ΣST) segment elevation, x ± s: 0 min before, c3-c8 5,15,30,60,90,120 min after administration; for IZ/LV / IZ/WT: N-BT staining; for CK after administration / CK before administration / LDH after administration / LDH before administration: serum
Description: Drugs were medicated with intravenous injection. The volume of the drug administered was the same as that of normal saline for the animal model group of ischemic reperfusion with administrative volume of 2 ml/kg.
After weighing, the animals were anesthetised with pentobarbital sodium iv at the dose of 30 mg/kg. Tracheal intubation was performed and SC-M5 anesthesia respirator (manufactured by Shanghai Medical Instrument Factory) was connected for mechanical ventilation (16˜18 per min with tidal volume of 350˜550 ml) after thoracotomy at the fourth intercostal space of left sternal border. With exposure of the heart, the pericardium was cut open to make pericardium hammock. The coronary artery was dissociated from between the first and second branches of left anterior descending coronary artery, underneath which passed through silk threads for two-step ligation. On surface of heart were placed 30-point epicardial leads, to which four limbs were connected through needle-electrodes, which in turn were connected to Powerlab/8s (AD Instruments) with a multichannel switcher. Harris Two-step Ligation was performed. Two minutes before first ligation, 5 mg/kg lidocaine was given by femoral intravenous injection to prevent arrhythmia. While performing ligation, a steel wire of 1 mm in diameter was inserted into the first knot so as to be ligated together with the coronary artery. Afterward, the steel-wire was pulled out and then 30 min later, the second knot was made to complete the ligation.
The epicardial electrogram 10 min after completing the ligation was recorded as the control value before drug administration. Later, test drug was given by femoral intravenous injection while the negative control group was given solvent of same volume. Constant dripping was completed within 30 min for all groups with a constant flow pump (SH-88AB Controllable Intravenous Injector made by Quanzhou Lizhong Electronic Medical Instrument Factory). After completion of the constant dripping, changes of epcardial electrogram at 5, 15, 30, 60, 90 and 120 min after administration were recorded respectively. The number of ST segment elevation or depression to more than 2 mV and sum of total value ST segment elevation (ΣST) were applied as the indexes for observation of changes of epcardial electrogram and to calculate the percentage of the weight of infarct area to the weight of whole heart or to the weight of left ventricle. 3 ml of blood from right ventricle was sampled before ligation and 2 hrs after administration. After centrifuged at 3000 rpm for 15 min, serum was taken to detect lactate dehydrogenase (LDH) and serum creatine kinase (CK). Method according to instruction of the LDH and CK Assay kit (batch no: 20020523, Nanjing Jiancheng Bioengineering Institute) (ENR: U90625, Randox Company, UK) was adopted for detection. The performance was with a ultraviolet/visible range spectrophotometer of UV751GD type (Shanghai analytical apparatus Factory).

For “3,4′,5-trihydroxy-stilbene-3-β-D-glucoside [TSG]”, which signs of intoxication (Kunming mice) is on record?
The signs of intoxication was “body shaking, occasionally restlessness, twitch and other responses appeared”.

And the “time of death after the drug injection” value (Kunming mice)?
The value was 5 to 1440 min.

What about the “effect on vasoconstriction of noadrenalin” value ([1]; 1.37 mM) of the same substance?
The value was “no noticeable effect”.

And the “effect on vasoconstriction of noadrenalin” value ([1]; 1.71 mM)?
The value was “antagonistic effect”.

And the “effect on isolated carotid and pulmonary arteries” value ([1]; 3.28 mM)?
Its value is “no noticeable effect”.

What about the “effect on isolated carotid and pulmonary arteries” value ([1]; 5.12 mM) of the same substance?
Its value is “may relax”.

What about the “CK B/A” value ([2]; TSG 2.5 mg/kg) of the same substance?
The value was 2.54 ± 0.27.

What about the “LDH B/A” value ([2]; TSG 2.5 mg/kg) of the same substance?
Its value is 2.28 ± 0.21.

And the “sum of ST (ΣST) segment elevation, x ± s” value ([2]; TSG 2.5 mg/kg iv, 0 min before administration)?
The value was 154.5 ± 60.4 mV.

And the “sum of ST (ΣST) segment elevation, x ± s” value ([2]; TSG 2.5 mg/kg iv, 5 min after administration)?
The value was 154.7 ± 55.0 mV.

And the “sum of ST (ΣST) segment elevation, x ± s” value ([2]; TSG 2.5 mg/kg iv, 30 min after administration)?
The value was 129.2 ± 57.7 mV.

And the “sum of ST (ΣST) segment elevation, x ± s” value ([2]; TSG 2.5 mg/kg iv, 60 min after administration)?
Its value is 122.7 ± 59.6 mV.

What about the “sum of ST (ΣST) segment elevation, x ± s” value ([2]; TSG 2.5 mg/kg iv, 90 min after administration) of the same substance?
The value was 128.3 ± 55.1 mV.

What about the IZ/LV ([2]; TSG 2.5 mg/kg) of the same substance?
The IZ/LV was 21.68 ± 1.88 %.

And the IZ/WT ([2]; TSG 2.5 mg/kg)?
The IZ/WT was 11.70 ± 0.93 %.

What about the CK after administration ([2]; TSG 2.5 mg/kg) of the same substance?
Its CK after administration is 446.6 ± 39.4 IU/L.

And the CK before administration ([2]; TSG 2.5 mg/kg)?
Its CK before administration is 176.7 ± 18.8 IU/L.

What about the LDH after administration ([2]; TSG 2.5 mg/kg) of the same substance?
Its LDH after administration is 823.3 ± 186.3 IU/L.

What about the LDH before administration ([2]; TSG 2.5 mg/kg) of the same substance?
Its LDH before administration is 359.7 ± 70.5 IU/L.

And the “CK B/A” value ([2]; TSG 5.0 mg/kg)?
Its value is 1.98 ± 0.38.

And the “LDH B/A” value ([2]; TSG 5.0 mg/kg)?
Its value is 2.09 ± 0.16.

What about the “sum of ST (ΣST) segment elevation, x ± s” value ([2]; TSG 5.0 mg/kg iv, 0 min before administration) of the same substance?
The value was 153.8 ± 50.7 mV.

What about the “sum of ST (ΣST) segment elevation, x ± s” value ([2]; TSG 5.0 mg/kg iv, 5 min after administration) of the same substance?
The value was 148.0 ± 39.9 mV.

What about the “sum of ST (ΣST) segment elevation, x ± s” value ([2]; TSG 5.0 mg/kg iv, 30 min after administration) of the same substance?
The value was 116.2 ± 53.7 mV.

And the “sum of ST (ΣST) segment elevation, x ± s” value ([2]; TSG 5.0 mg/kg iv, 60 min after administration)?
The value was 105.3 ± 53.6 mV.

And the “sum of ST (ΣST) segment elevation, x ± s” value ([2]; TSG 5.0 mg/kg iv, 90 min after administration)?
Its value is 103.8 ± 54.1 mV.

And the IZ/LV ([2]; TSG 5.0 mg/kg)?
Its IZ/LV is 15.25 ± 1.41 %.

And the IZ/WT ([2]; TSG 5.0 mg/kg)?
The IZ/WT was 9.03 ± 1.16 %.

What about the CK after administration ([2]; TSG 5.0 mg/kg) of the same substance?
The CK after administration was 356.2 ± 64.8 IU/L.

What about the CK before administration ([2]; TSG 5.0 mg/kg) of the same substance?
Its CK before administration is 180.8 ± 13.2 IU/L.

And the LDH after administration ([2]; TSG 5.0 mg/kg)?
The LDH after administration was 587.1 ± 170.6 IU/L.

And the LDH before administration ([2]; TSG 5.0 mg/kg)?
The LDH before administration was 281.2 ± 80.9 IU/L.

What about the “CK B/A” value ([2]; TSG 10 mg/kg) of the same substance?
Its value is 1.74 ± 0.37.

And the “LDH B/A” value ([2]; TSG 10 mg/kg)?
Its value is 1.99 ± 0.14.

And the “sum of ST (ΣST) segment elevation, x ± s” value ([2]; TSG 10 mg/kg iv, 0 min before administration)?
Its value is 155.0 ± 46.4 mV.

And the “sum of ST (ΣST) segment elevation, x ± s” value ([2]; TSG 10 mg/kg iv, 5 min after administration)?
Its value is 151.7 ± 35.6 mV.

What about the “sum of ST (ΣST) segment elevation, x ± s” value ([2]; TSG 10 mg/kg iv, 30 min after administration) of the same substance?
The value was 115.2 ± 50.9 mV.

And the “sum of ST (ΣST) segment elevation, x ± s” value ([2]; TSG 10 mg/kg iv, 60 min after administration)?
The value was 104.7 ± 45.5 mV.

And the “sum of ST (ΣST) segment elevation, x ± s” value ([2]; TSG 10 mg/kg iv, 90 min after administration)?
Its value is 102.0 ± 51.8 mV.

And the IZ/LV ([2]; TSG 10 mg/kg)?
The IZ/LV was 13.92 ± 1.32 %.

And the IZ/WT ([2]; TSG 10 mg/kg)?
Its IZ/WT is 8.65 ± 1.11 %.

What about the CK after administration ([2]; TSG 10 mg/kg) of the same substance?
Its CK after administration is 299.5 ± 63.9 IU/L.

And the CK before administration ([2]; TSG 10 mg/kg)?
The CK before administration was 172.7 ± 11.1 IU/L.

What about the LDH after administration ([2]; TSG 10 mg/kg) of the same substance?
Its LDH after administration is 551.6 ± 131.3 IU/L.

And the LDH before administration ([2]; TSG 10 mg/kg)?
Its LDH before administration is 279.3 ± 70.8 IU/L.
